The values that follow come from patent US20250115620A1, “BRIDGED TRICYCLIC CARBAMOYLPYRIDONE COMPOUNDS AND USES THEREOF” (Gilead Sciences, Inc., priority 2022, published 2025).

One data set concerns HIV-1 (IIIB). In words: microbe, parasite or virus in culture. It counts as cell-based. Particulars: Human immunodeficiency virus 1, IIIB, MT4, 120 h, read-out: MT4 EC50.
The test system of another data set is pLAI reporter virus. Description: microbe, parasite or virus in culture. It counts as cell-based, HIV. The settings on record: Human immunodeficiency virus 1, MT4, 72 h.
A further data set is described as follows: in vitro. The settings on record: human; for CC50 at 5 days: uninfected MT-4 cells.
[1] abbreviates: HIV-1 (IIIB) in MT-4 cells, 5 days incubation, Cell Titer Glo.

Like-named read-outs stand apart in the source and are kept apart here.

Procedure for HIV-1 (IIIB): Compounds were tested in a high-throughput 384-well assay format for their ability to inhibit the replication of HIV-1 (IIIB) in MT-4 cells. Compounds were serially diluted (1:3) in DMSO on 384-well polypropylene plates and further diluted 200-fold into complete RPMI media (10% FBS, 1% P/S) using the Biotek Micro Flow and Labcyte ECHO acoustic dispenser. Each plate contained up to 8 test compounds, with negative (No Drug Control) and 5 μM AZT positive controls. MT-4 cells were pre-infected with 10 μL of either RPMI (mock-infected) or a fresh 1:250 dilution of HIV-1 IIIB concentrated virus stock. Infected and uninfected MT-4 cells were further diluted in complete RPMI media and added to each plate using a Micro Flow dispenser. After 5 days incubation in a humidified and temperature controlled incubator (37° C.), Cell Titer Glo (Promega) was added to the assay plates and chemiluminescence read using an Envision plate-reader.
Procedure for in vitro: Compounds were serially diluted (1:3) in DMSO on 384-well polypropylene plates and further diluted 200-fold into complete RPMI media (10% FBS, 1% P/S) using the Biotek Micro Flow and Labcyte ECHO acoustic dispenser. […] Infected and uninfected MT-4 cells were further diluted in complete RPMI media and added to each plate using a Micro Flow dispenser. After 5 days incubation in a humidified and temperature controlled incubator (37° C.), Cell Titer Glo (Promega) was added to the assay plates and chemiluminescence read using an Envision plate-reader.
Assays were performed as above except uninfected MT-4 cells were added to each well containing test compound. In addition, 10 μM puromycin was added to the last column of each assay plate to assess a base level of cytotoxicity.

As for `C[C@H]1CC[C@]2(CC(Cc3ccccc3)=NO2)[C@H]2CN1C(=O)c1c(O)c(=O)c(C(=O)NCc3ccc(F)cc3F)cn12` [Example 12, (3′S,5S,7′R)-3-benzyl-N-(2,4-difluorobenzyl)-12′-hydroxy-3′-methyl-1′,11′-dioxo-1′,4′,5′,11′-tetrahydro-3′H,4H,7′H-spiro[isoxazole-5,6′-[2,7]methanopyrido[1,2-a][1,4]diazonine]-10′-carboxamide], the EC50 (as a rule, the concentration that produces a half-maximal response) with HIV-1 (IIIB) came out at 1.7 nM; in the data set with pLAI reporter virus (read-out: RLUC 50% HS EC50) it was 35.6 nM; in the data set on pLAI reporter virus (read-out: RLUC CCM EC50), 1.1 nM. The CC50 in the data set “in vitro” stood at 23500 nM.

`COC1=NS[C@]2(CC[C@H](C)N3C[C@H]2n2cc(C(=O)NCc4ccc(F)cc4F)c(=O)c(O)c2C3=O)C1` [Example 145, (3′S,5R,7′R)—N-(2,4-difluorobenzyl)-12′-hydroxy-3-methoxy-3′-methyl-1′,11′-dioxo-1′,4′,5′,11′-tetrahydro-3′H,4H,7′H-spiro[isothiazole-5,6′-[2,7]methanopyrido[1,2-a][1,4]diazonine]-10′-carboxamide]: the figures for the EC50 in the data set on HIV-1 (IIIB) (setting [1]), in the data set on pLAI reporter virus (read-out: RLUC 50% HS EC50) and in the data set on pLAI reporter virus (read-out: RLUC CCM EC50) were 3.8 nM, 7.5 nM and 1.1 nM, respectively. Further, the CC50 at 5 days in “in vitro” was no less than 50000 nM.

Regarding `C[C@H]1CC[C@]2(CC(C(F)F)=NO2)[C@H]2CN1C(=O)c1c(O)c(=O)c(C(=O)NCc3c(F)cc(F)cc3F)cn12` [Example 20, (3′S,5S,7′R)-3-(difluoromethyl)-12′-hydroxy-3′-methyl-1′,11′-dioxo-N-(2,4,6-trifluorobenzyl)-1′,4′,5′,11′-tetrahydro-3′H,4H,7′H-spiro[isoxazole-5,6′-[2,7]methanopyrido[1,2-a][1,4]diazonine]-10′-carboxamide], the EC50 came out at 1.2 nM in the data set with HIV-1 (IIIB) (setting [1]), 168 nM in the data set with pLAI reporter virus (read-out: RLUC 50% HS EC50) and 0.3 nM in the data set with pLAI reporter virus (read-out: RLUC CCM EC50). In “in vitro”, this compound returned a CC50 at 5 days of 12400 nM.

As to `C[C@H]1CC[C@]2(CC(=O)N(Cc3ccc(Br)cc3)O2)[C@H]2CN1C(=O)c1c(O)c(=O)c(C(=O)NCc3c(F)cc(F)cc3F)cn12` [Example 158, (3′S,5S,7′R)-2-(4-bromobenzyl)-12′-hydroxy-3′-methyl-1′,3,11′-trioxo-N-(2,4,6-trifluorobenzyl)-1′,4′,5′,11′-tetrahydro-3′H,7′H-spiro[isoxazolidine-5,6′-[2,7]methanopyrido[1,2-a][1,4]diazonine]-10′-carboxamide], the EC50 with HIV-1 (IIIB) (setting [1]) worked out at 1.7 nM; with pLAI reporter virus (read-out: RLUC 50% HS EC50), 3.2 nM; with pLAI reporter virus (read-out: RLUC CCM EC50), 0.8 nM. The compound further gave a CC50 at 5 days in “in vitro” of 2120 nM.

Regarding `C[C@H]1CC[C@]2(CC(=O)N(Cc3ccc(C#N)cc3)O2)[C@H]2CN1C(=O)c1c(O)c(=O)c(C(=O)NCc3c(F)cc(F)cc3F)cn12` [Example 118, (3′S,5S,7′R)-2-(4-cyanobenzyl)-12′-hydroxy-3′-methyl-1′,3,11′-trioxo-N-(2,4,6-trifluorobenzyl)-1′,4′,5′,11′-tetrahydro-3′H,7′H-spiro[isoxazolidine-5,6′-[2,7]methanopyrido[1,2-a][1,4]diazonine]-10′-carboxamide], the EC50 worked out at 2.6 nM in the data set with HIV-1 (IIIB) (setting [1]), 0.4 nM in the data set with pLAI reporter virus (read-out: RLUC 50% HS EC50) and 0.4 nM with pLAI reporter virus (read-out: RLUC CCM EC50). The same compound showed a CC50 at 5 days in the data set “in vitro” of no less than 50000 nM.

Consider `C[C@H]1CC[C@]2(CC(Br)=NO2)[C@H]2CN1C(=O)c1c(O)c(=O)c(C(=O)NCc3ccc(F)cc3F)cn12` [Example 44, (3′S,5S,7′R)-3-bromo-N-(2,4-difluorobenzyl)-12′-hydroxy-3′-methyl-1′,11′-dioxo-1′,4′,5′,11′-tetrahydro-3′H,4H,7′H-spiro[isoxazole-5,6′-[2,7]methanopyrido[1,2-a][1,4]diazonine]-10′-carboxamide], for which the figures for the concentration giving a half-maximal response (EC50) in the data set with HIV-1 (IIIB) (setting [1]), in the data set on pLAI reporter virus (read-out: RLUC 50% HS EC50) and in the data set on pLAI reporter virus (read-out: RLUC CCM EC50) were 0.7 nM, 160 nM and 0.1 nM, respectively. The CC50 at 5 days in “in vitro” is 24400 nM.

For the compound `CNC1=NO[C@@]2(CC[C@H](C)N3C[C@H]2n2cc(C(=O)NCc4c(F)cc(F)cc4F)c(=O)c(O)c2C3=O)C1` [Example 51, (3′S,5S,7′R)-12′-hydroxy-3′-methyl-3-(methylamino)-1′,11′-dioxo-N-(2,4,6-trifluorobenzyl)-1′,4′,5′,11′-tetrahydro-3′H,4H,7′H-spiro[isoxazole-5,6′-[2,7]methanopyrido[1,2-a][1,4]diazonine]-10′-carboxamide], the EC50 came out at 1.3 nM with HIV-1 (IIIB) (setting [1]), 5.2 nM in the data set on pLAI reporter virus (read-out: RLUC 50% HS EC50) and 0.3 nM with pLAI reporter virus (read-out: RLUC CCM EC50). The compound also displayed a CC50 at 5 days in “in vitro” of 41100 nM.

With `CC1C[C@@]2(CC[C@H](C)N3C[C@H]2n2cc(C(=O)NCc4c(F)cc(F)cc4F)c(=O)c(O)c2C3=O)OCO1` (stereo partly drawn) [Example 124, (3′S,4R,7′R)-12′-hydroxy-3′,6-dimethyl-1′,11′-dioxo-N-(2,4,6-trifluorobenzyl)-1′,4′,5′,11′-tetrahydro-3′H,7′H-spiro[[1,3]dioxane-4,6′-[2,7]methanopyrido[1,2-a][1,4]diazonine]-10′-carboxamide], the figures for the EC50 with HIV-1 (IIIB) (setting [1]), in the data set with pLAI reporter virus (read-out: RLUC 50% HS EC50) and in the data set on pLAI reporter virus (read-out: RLUC CCM EC50) were 0.8 nM, 0.4 nM and 0.2 nM, respectively. Moreover, the CC50 at 5 days in “in vitro” stood at 29800 nM.

`CC1=NO[C@@]2(CC[C@H](C)N3C[C@H]2n2cc(C(=O)NCc4ccc(F)cc4F)c(=O)c(O)c2C3=O)[C@@H]1F` (single isomer, unassigned) [Example 27 (peak 2)]: the half-maximal effective concentration (EC50) with HIV-1 (IIIB) (setting [1]) came to 0.6 nM; with pLAI reporter virus (read-out: RLUC 50% HS EC50) it was 160 nM; with pLAI reporter virus (read-out: RLUC CCM EC50), 0.3 nM. In “in vitro”, this compound displayed a CC50 at 5 days of 45600 nM.

On to `COC1=NO[C@@]2(CC[C@H](C)N3C[C@H]2n2cc(C(=O)NCc4c(F)cc(F)cc4F)c(=O)c(O)c2C3=O)[C@@H]1F` [Example 86, (3′S,4S,5R,7′R)-4-fluoro-12′-hydroxy-3-methoxy-3′-methyl-1′,11′-dioxo-N-(2,4,6-trifluorobenzyl)-1′,4′,5′,11′-tetrahydro-3′H,4H,7′H-spiro[isoxazole-5,6′-[2,7]methanopyrido[1,2-a][1,4]diazonine]-10′-carboxamide], for which the values for the concentration for a half-maximal effect (EC50) in the data set with HIV-1 (IIIB) (setting [1]), with pLAI reporter virus (read-out: RLUC 50% HS EC50) and in the data set on pLAI reporter virus (read-out: RLUC CCM EC50) were 1.2 nM, 68.4 nM and 0.3 nM, respectively. This compound showed a CC50 at 5 days in “in vitro” of 11900 nM.

On to `CC1=NO[C@@]2(CC[C@H](C)N3C[C@H]2n2cc(C(=O)NCc4ccc(F)cc4F)c(=O)c(O)c2C3=O)[C@H]1F` (single isomer, unassigned) [Example 27 (peak 1)], for which the half-maximal effective concentration (EC50) in the data set on HIV-1 (IIIB) (setting [1]) amounted to 1.3 nM; in the data set with pLAI reporter virus (read-out: RLUC 50% HS EC50), 175 nM; in the data set on pLAI reporter virus (read-out: RLUC CCM EC50) it was 0.2 nM. The same compound had a CC50 at 5 days in the data set “in vitro” of 33100 nM.

Take `C[C@H]1CC[C@@]2(CC(C#CC(C)(C)S(C)(=O)=O)=NO2)[C@H]2CN1C(=O)c1c(O)c(=O)c(C(=O)NCc3c(F)cc(F)cc3F)cn12` [Example 80, (3′S,5R,7′R)-12′-hydroxy-3′-methyl-3-(3-methyl-3-(methylsulfonyl)but-1-yn-1-yl)-1′,11′-dioxo-N-(2,4,6-trifluorobenzyl)-1′,4′,5′,11′-tetrahydro-3′H,4H,7′H-spiro[isoxazole-5,6′-[2,7]methanopyrido[1,2-a][1,4]diazonine]-10′-carboxamide]: the 50% effective concentration (EC50) in the data set on HIV-1 (IIIB) (setting [1]) was 81.5 nM; in the data set with pLAI reporter virus (read-out: RLUC 50% HS EC50), 30.1 nM; in the data set on pLAI reporter virus (read-out: RLUC CCM EC50) it was 15.7 nM. Also, the CC50 at 5 days in “in vitro” is no less than 50000 nM.

Regarding `CC1=NO[C@@]2(CC[C@H](C)N3C[C@H]2n2cc(C(=O)NCc4ccc(F)cc4F)c(=O)c(O)c2C3=O)[C@@H]1O` [Example 30, (3′S,4R,5R,7′R)—N-(2,4-difluorobenzyl)-4,12′-dihydroxy-3,3′-dimethyl-1′,11′-dioxo-1′,4′,5′,11′-tetrahydro-3′H,4H,7′H-spiro[isoxazole-5,6′-[2,7]methanopyrido[1,2-a][1,4]diazonine]-10′-carboxamide], the values for the EC50 in the data set on HIV-1 (IIIB) (setting [1]), with pLAI reporter virus (read-out: RLUC 50% HS EC50) and with pLAI reporter virus (read-out: RLUC CCM EC50) were 1.2 nM, 79.4 nM and 0.5 nM, respectively. In the data set “in vitro”, this compound yielded a CC50 at 5 days of 40000 nM.

Take `C[C@H]1CC[C@]2(CC(C#CC(C)(C)O)=NO2)[C@H]2CN1C(=O)c1c(O)c(=O)c(C(=O)NCc3c(F)cc(F)cc3F)cn12` [Example 81, (3′S,5S,7′R)-12′-hydroxy-3-(3-hydroxy-3-methylbut-1-yn-1-yl)-3′-methyl-1′,11′-dioxo-N-(2,4,6-trifluorobenzyl)-1′,4′,5′,11′-tetrahydro-3′H,4H,7′H-spiro[isoxazole-5,6′-[2,7]methanopyrido[1,2-a][1,4]diazonine]-10′-carboxamide]: the 50% effective concentration (EC50) is 2.1 nM in the data set with HIV-1 (IIIB) (setting [1]), 0.6 nM with pLAI reporter virus (read-out: RLUC 50% HS EC50) and 0.5 nM with pLAI reporter virus (read-out: RLUC CCM EC50). In “in vitro”, this compound showed a CC50 at 5 days of 19600 nM.

For `CCC1=NO[C@@]2(CC[C@H](C)N3C[C@H]2n2cc(C(=O)NCc4ccc(F)cc4F)c(=O)c(O)c2C3=O)C1` [Example 8, (3′S,5S,7′R)—N-(2,4-difluorobenzyl)-3-ethyl-12′-hydroxy-3′-methyl-1′,11′-dioxo-1′,4′,5′,11′-tetrahydro-3′H,4H,7′H-spiro[isoxazole-5,6′-[2,7]methanopyrido[1,2-a][1,4]diazonine]-10′-carboxamide], the EC50 was determined as 0.8 nM in the data set with HIV-1 (IIIB) (setting [1]), 75.2 nM in the data set on pLAI reporter virus (read-out: RLUC 50% HS EC50) and 0.2 nM in the data set on pLAI reporter virus (read-out: RLUC CCM EC50). The CC50 at 5 days in “in vitro” worked out at 14800 nM.

As to `COc1ccc(CN2O[C@@]3(CC[C@H](C)N4C[C@H]3n3cc(C(=O)NCc5c(F)cc(F)cc5F)c(=O)c(O)c3C4=O)CC2=O)cc1` [Example 119, (3′S,5S,7′R)-12′-hydroxy-2-(4-methoxybenzyl)-3′-methyl-1′,3,11′-trioxo-N-(2,4,6-trifluorobenzyl)-1′,4′,5′,11′-tetrahydro-3′H,7′H-spiro[isoxazolidine-5,6′-[2,7]methanopyrido[1,2-a][1,4]diazonine]-10′-carboxamide], the EC50 stood at 1.5 nM with HIV-1 (IIIB) (setting [1]), 2.3 nM in the data set on pLAI reporter virus (read-out: RLUC 50% HS EC50) and 0.5 nM in the data set on pLAI reporter virus (read-out: RLUC CCM EC50). The CC50 at 5 days in “in vitro” was no less than 50000 nM.

Take `C[C@H]1CC[C@]2(OC[C@@H](Cc3ccccc3)O2)[C@H]2CN1C(=O)c1c(O)c(=O)c(C(=O)NCc3c(F)cc(F)cc3F)cn12` (single isomer, unassigned) [169 (peak 2)]: the figures for the EC50 with HIV-1 (IIIB) (setting [1]), in the data set with pLAI reporter virus (read-out: RLUC 50% HS EC50) and in the data set with pLAI reporter virus (read-out: RLUC CCM EC50) were 4.3 nM, 4 nM and 2 nM, respectively. In the data set “in vitro”, this compound came in with a CC50 at 5 days of 45100 nM.
